Values of other authors in patent US6277391A, “Composition and method of treating diseases and disorders of the prostate” (Samyang Corporation, priority 1998, dated 2001).

Conditions: 300 mg PO b.i.d., oral or intravenous, at the end of regimen; 60480 min

- ofloxacin concentrations in the prostate: 1 to 4 µg/g
SMILES: CC1COc2c(N3CCN(C)CC3)c(F)cc3c(=O)c(C(=O)O)cn1c23 (stereo not shown) [ofloxacin]
